Data: US20240398969A1, “ANTIBODY-DRUG CONJUGATES FOR TREATING INFECTIONS OF HUMAN IMMUNODEFICIENCY VIRUS (HIV)” (priority 2023, published 2024)
Where two headings read alike, the source gives them in different places.

Columns and labels:
Type in all cases: cell-based
[1] = test system: Jurkat CD4^+ (human T lymphocyte cells); test: Cytotoxicity assay, CellTiter-Glo Luminescent Cell Viability Assay, Jurkat; details: 72 h, read-out: IC50 value of Luminescent Cell Viability Assay
Procedure: In vitro cytotoxicity assay was conducted for 3 days with the CD4 enriched Jurkat T cells and treated with various amounts of drugs using CellTiter-Glo® Luminescent Cell Viability Assay Kit (Promega, G7571). The assay was performed following the manufacturer's instructions. Briefly, cells were plated in 96-well plates at […] in 100 μl RPMI 1640 medium with 10% heat-inactivated Fetal Bovine Serum. The following day, a serial ten-fold dilution for eight points of drugs (Romidepsin, TMB-355-ADC, and TMB-355) was used. The final concentration in the test was ranging from 1×10^3 nM to 1×10^−4 nM for Romidepsin, from 6.67×10^2 nM to 6.67×10^−5 nM for TMB-355-ADC and TMB-355. The cells were then incubated at 37° C. for 72 h. Subsequently, 100 μL/well of CellTiter-Glo reagent was added and the cells were shaken for 2 minutes and then incubated for an additional 10 minutes at room temperature. After the incubation time, luminescence (light) was measured in a luminometer (Clariostar: BMG, Buckinghamshire, UK). The IC50 corresponds to the drug concentration which achieves 50% activity of untreated control cultures. IC50 values were calculated using the software package Prism 6.0 (GraphPad Software Inc., San Diego, Calif.) with variable slope option.

[2] = test system: Ramos(human B lymphocyte); test: Cytotoxicity assay, CellTiter-Glo Luminescent Cell Viability Assay, Ramos; details: 72 h, read-out: IC50 value of Luminescent Cell Viability Assay
HDAC [3] = test: Cellular HDAC enzymatic assay (FLUOR DE LYS HDAC fluorometric cellular activity assay) in CD4 enriched Jurkat T cells
Procedure: (§1) Cellular HDAC enzymatic assay was conducted for 3 days with the CD4 enriched Jurkat T lymphocyte cells or B lymphocyte cells treated with various amounts of drugs using FLUOR DE LYS® HDAC fluorometric cellular activity assay kit (Enzo Life Sciences, Inc., cat. No: BML-AK503-0001). The assay was performed following the manufacturer's instructions. […] The Fluor de Lys substrate was added in a culture media. After 30 min 37° C., 1 volume of the developer was added. After 15 min 37° C., the fluorophore was excited with 355 nm light and the emitted light (450 nm) was being detected on a fluorometric plate reader (Clariostar: BMG, Buckinghamshire, UK). For each experiment, controls (containing CD4 enriched Jurkat T lymphocyte cells or Ramos B lymphocyte cells and buffer), a blank incubation (containing buffer but no CD4 enriched Jurkat T lymphocyte cells or Ramos B lymphocyte cells) and samples (containing compound dissolved in DMSO or ADCs dissolved in PBS and further diluted in medium) were run in parallel. In each test the blank value was subtracted from both the control and the sample values. The control sample represented 100% of substrate deacetylation. For each sample the fluorescence was expressed as a percentage of the mean value of the controls.

HDAC [4] = test: Cellular HDAC enzymatic assay (FLUOR DE LYS HDAC fluorometric cellular activity assay) in Ramos B lymphocyte cells
Procedure: as §1

Compound	IC50 ([1]; Homo sapiens, Jurkat)	IC50 ([2]; Homo sapiens, Ramos)	IC50 (HDAC [3]; read-out: IC50 value of Cellular HDAC enzymatic assay; Jurkat CD4^+ (human T lymphocyte cells), 3 days)	IC50 (HDAC [4]; read-out: IC50 value of Cellular HDAC enzymatic assay; Ramos (human B lymphocyte), 3 days)	IC50 ([1]; Jurkat CD4^+ (human T lymphocyte cells))	IC50 ([2]; Ramos (human B lymphocyte))	IC50 (HDAC [3]; Jurkat CD4^+ (human T lymphocyte cells), 3 days; read-out: IC50 value of Cellular HDAC enzymatic assay)	IC50 (HDAC [4]; Ramos (human B lymphocyte), 3 days; read-out: IC50 value of Cellular HDAC enzymatic assay)
C/C=C1\NC(=O)[C@H]2CSSCC/C=C/[C@H](CC(=O)N[C@H](C(C)C)C(=O)N2)OC(=O)[C@H](C(C)C)NC1=O [Romidepsin]	1.6 nM	2.2 nM	1.6 nM	3.9 nM	–	–	–	–
TMB-355	–	–	–	–	> 667 nM	> 667 nM	> 667 nM	> 667 nM
